Several values for one entry are separate records, joined by “and”; a condition that tells them apart may be missing. Equal entries are not always repeated.
What was measured:
[1] = In vivo stability of compound in kidney tissue after administration to mice; details: 7 days post-injection
[2] = Ex vivo liver homogenate stability assay (HPLC-TOF MS); details: 5 μM oligonucleotide in liver homogenate (50 mg tissue per ml), 24 hours at 37° C.
[3] = test system: UUO model of kidney fibrosis; assay: UUO model: collagen area fraction of kidney tissue (picrosirius red histology); assay type: in vivo, mice; details: Table N, 25070 20 mg/kg s.c.
Method: Control treatment groups included UUO only (sham) and UUO with PBS administered subcutaneously. An additional control group included UUO with Tween-MC/20 carrier perorally. 25070 administered subcutaneously at dose of 20 mg/kg at 5 days prior to, 2 days prior to, and 3 days after, the UUO procedure. Irbesartan was administered perorally on daily on days 0 through 7 following the UUO procedure. Animals were sacrificed on Day 10 following the UUO procedure. Kidney tissue was collected for measurement of collagen 1A1 and collagen 3A1 expression.
The ‘collagen area fraction’ is measured histologically through quantitative image processing of the area of kidney tissue that is stained red by the picrosirius red stain; the percent detected as red is normalized by the area of kidney section.

[4] = test system: ischemia reperfusion injury/nephrectomy (IR/Nx) model; assay: Ischemia reperfusion injury/nephrectomy (IR/Nx) model: urinary albumin to creatinine ratio; assay type: in vivo, mouse
Source text: An ischemia reperfusion injury/nephrectomy (IR/Nx) model is created in the mouse through temporary unilateral clamping of an artery in one kidney, which leads to tubule damage, inflammation, and fibrosis, followed by removal of the second kidney at a later timepoint. In this model, the acute kidney dysfunction phase is useful to test candidate agents for the treatment of acute kidney injury (i.e. up to about the first 5 days), and the later phases of kidney dysfunction are useful to model chronic fibrosis (i.e. after about the first 5 days).
Unilateral IR was induced for a period of 30 minutes. Treatment groups were as follows: sham IR procedure; IR with PBS administered subcutaneously; IR with mismatched control 25109 administered subcutaneously at a dose of 20 mg/kg; IR with anti-miR-21 compound 25070 administered subcutaneously at a dose of 20 mg/kg; and IR with anti-miR-21 compound 25923 administered subcutaneously at a dose of 20 mg/kg. PBS or anti-miR was administered on days 2, 3, 4, and 8 following IR. On day 8, the healthy kidney was removed by nephrectomy from each animal, and animals were sacrificed on day 9. Just prior to sacrifice, urine was collected by direct bladder puncture.
Urinary albumin to creatinine ratio was measured in the urine from each mouse. […] The geometric mean of the albumin to creatinine ratio in each group of mice was 16 μgAlb/mgCr (nephrectomy-only control), 127 μgAlb/mgCr (IR/Nx, PBS control), 140 μgAlb/mgCr (IR/Nx, 25109 control), 40 μgAlb/mgCr (IR/Nx, 25070), and 31 μgAlb/mgCr (IR/Nx, 25923). Blood urea nitrogen and serum creatinine levels were similar across all IR/Nx mice, and were elevated relative to nephrectomy-only control mice (data not shown).

AECSATCSAGTCSTGAUSAAGCSTAE (ACATCAGTCTGATAAGCTA; modified nucleosides, phosphorothioate linkages, chemistry not fully specified) [Compound 25070]
compound present in kidney tissue lacking the 3′-terminal nucleoside [1]: about 50%
compound lacking the 3′-terminal nucleoside [2]: about 27%
compound present as the full-length compound [2]: about 58%
Collagen Area Fraction (%) Mean ([3]; group mean, irbesartan PO, Day 10, UUO-PBS 11.1, Tween/MC vehicle 8.0): 8.0%
Collagen Area Fraction (%) ([3]; individual animals, irbesartan PO daily days 0-7, Day 10, picrosirius red, 20 mg/kg): 7.632% and 9.937% and 8.015% and 6.611% and 6.319% and 11.272% and 6.803% and 7.405%
reduction in urinary albumin to creatinine ratio (significance) ([4]; 20 mg/kg subcutaneously on days 2, 3, 4, and 8): statistically significant reductions
geometric mean of the urinary albumin to creatinine ratio ([4]; 20 mg/kg subcutaneously on days 2, 3, 4, and 8, urine on day 9): 40 μgAlb/mgCr
